Measured values: US4798833A, “Guanine derivative” (priority 1983, dated 1989)

Key:
[1] = test system: HSV-2 (strain 91075); test: Systemic (i.p.) HSV-2 infection in mice; format: in vivo; details: treated animals
[2] = test system: HSV-1 (strain C42); test: Plaque reduction assay, inhibition of HSV-1 multiplication in HEL cells; format: cell-based, Herpes simplex type 1 virus; details: Human alphaherpesvirus 1, HEL (human embryonic lung) cells, read-out: HSV-1 in HEL cells ID50
[3] = test system: HSV-1 (C42); test: Systemic (i.p.) HSV-1 infection in mice; format: in vivo; details: treated animals
[4] = Cellular toxicity, reduction in growth of human embryonic cells; details: flow 1000 cells
[5] = test system: HSV-1 (strain C42); test: Plaque reduction assay, inhibition of HSV-1 multiplication in Vero cells; format: cell-based, Herpes simplex type 1 virus; details: read-out: Inhibition (%)/Conc. (μM), HSV-1 in Vero cells; for inhibition at 1 µM: Human alphaherpesvirus 1, 1 μM
[6] = molecular target: HSV-1 thymidine kinase (Human herpesvirus 1, UniProt P0DTH5); test: biochemical; details: for Ki: HSV-1 thymidine kinase, read-out: Inhibition constant Ki
Sequence of HSV-1 thymidine kinase (P0DTH5 whole entry): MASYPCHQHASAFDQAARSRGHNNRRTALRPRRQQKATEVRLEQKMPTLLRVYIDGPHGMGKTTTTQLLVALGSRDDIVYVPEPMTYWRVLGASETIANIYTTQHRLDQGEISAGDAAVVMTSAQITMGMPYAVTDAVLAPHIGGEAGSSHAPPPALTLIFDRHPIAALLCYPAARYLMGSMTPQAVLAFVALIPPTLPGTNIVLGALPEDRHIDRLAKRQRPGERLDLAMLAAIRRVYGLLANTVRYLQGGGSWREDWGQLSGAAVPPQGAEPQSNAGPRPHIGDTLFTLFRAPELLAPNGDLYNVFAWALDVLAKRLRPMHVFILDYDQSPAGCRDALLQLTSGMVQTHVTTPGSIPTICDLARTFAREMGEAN

[7] = test system: cutaneous herpesvirus infection; test: Cutaneous herpesvirus infection on guinea pigs, topical treatment; format: in vivo
Procedure: Thirty μl of solution or solvent was added topically 3 times per day for 4 days starting 24 h post inoculation.

[8] = test system: VZV (several strains); test: Inhibition of VZV multiplication in HL cells, late antigens by ELISA; format: cell-based, Varicella zoster virus
Procedure: I. Inhibition of virus multiplication in cell cultures
Virol. 2 357 (1968). The effect on VZV (several strains) multiplication in HL (human lung fibroblast) cells by VSA 671 was determined by measuring the formation of late antigens by the ELISA technique as described by B. Wahren et al., J. Virological Methods 6, 141-149 (1983).

[9] = 25 mg/kg i.p. twice daily 5 days, untreated 90, 21 days
[10] = 50 mg/kg i.p. twice daily 5 days, untreated 90, 21 days

SMILES | Cumulative mortality (%) (treated/untreated) ([1]; 5 mg/kg i.p. twice daily 5 days, untreated 90, 21 days) | Cumulative mortality (%) (treated/untreated) ([1]; 10 mg/kg i.p. twice daily 5 days, untreated 90, 21 days) | Cumulative mortality (%) (treated/untreated) [1, 9] | Cumulative mortality (%) (treated/untreated) ([1]; 50 mg/kg i.p. twice daily 5 days, untreated 100, 21 days) | IC50 [2] | Cumulative mortality (%) (treated/untreated) ([3]; 5 mg/kg i.p. twice daily 5 days, untreated 80, 21 days) | Cumulative mortality (%) (treated/untreated) ([3]; 10 mg/kg i.p. twice daily 5 days, untreated 80, 21 days) | inhibition at 48 h, 200 µM [4] | inhibition at 1 µM [5] | Ki [6] | Percent reduction in cumulative score as compared to placebo treatment ([7]; 2.5% in dimethylsulfoxide, 30 μl topically 3 times per day for 4 days starting 24 h post inoculation) | Therapeutic effect on cutaneous herpesvirus infections (in words) ([7]; topical) | inhibition at 10 µM ([5]; Human alphaherpesvirus 1, 10 μM) | inhibition at 25 µM ([5]; Human alphaherpesvirus 1, 25 μM) | Cumulative mortality (%) (treated/untreated) [1, 10] | IC50 ([8]; Human alphaherpesvirus 3, HL (human lung fibroblast) cells, several strains, late antigens by ELISA, read-out: VZV in HL cells ID50) | Effect against varicella zoster virus multiplication ([8]; in words) | Cumulative mortality (%) (treated/untreated) [3, 9] | Cumulative mortality (%) (treated/untreated) [3, 10] | Affinity for viral thymidine kinase (in words) [6]
Nc1nc2c(ncn2CCC(CO)CO)c(=O)[nH]1 [VIS 873, 9-[4-hydroxy-3-(hydroxymethyl)butyl]guanine] | 70% | 20% | 0% | 10% | 400 nM | 30% | 0% | 7% | > 90% | 1.5 µM | 36% | had a therapeutic effect on cutaneous herpesvirus infections when applied topically |  |  |  |  |  |  |  | 
Nc1nc2c(ncn2C/C=C\CO)c(=O)[nH]1 [VSA 151, cis-9-(4-hydroxy-2-butenyl)guanine] |  |  |  |  | 600 nM |  |  | 0% |  | 7 µM |  |  | > 90% |  |  |  |  |  |  | 
Nc1nc2c(ncn2CC=C(CO)CO)c(=O)[nH]1 [VSA 668, 9-[4-hydroxy-3-(hydroxymethyl)-2-butenyl]guanine] |  |  |  |  |  |  |  | 0% |  | 25 µM |  |  |  | > 90% |  |  |  |  |  | 
Nc1nc2c(ncn2CC(CO)CCO)c(=O)[nH]1 (stereo not drawn) [VSA 671, 9-[4-hydroxy-2-(hydroxymethyl)butyl]guanine] |  |  | 40% |  | 200 nM |  |  | 18% | > 90% | 0.6 µM |  |  |  |  | 30% | 1300 to 2500 nM | very good effect against varicella zoster virus multiplication | 30% | 30% | affinity close to that of the natural substrate, thymidine
